Assays:
[1] = Cytotoxicity against differentiated mouse 3T3-F442A cells assessed as depletion of mitochondrial DNA level at 1 uM by real-time PCR; assay type: cell-based
[2] = Cytotoxicity against differentiated mouse 3T3-F442A cells assessed as increase in total deoxynucleotides content at 10 uM after 2 to 10 days; assay type: cell-based
[3] = Cytotoxicity against differentiated mouse 3T3-F442A cells assessed as effect on total deoxynucleotides content at 10 uM after 2 to 10 days; assay type: cell-based
[4] = Cytotoxicity against differentiated mouse 3T3-F442A cells assessed as effect on total deoxynucleotides content at 1 uM after 2 to 10 days; assay type: cell-based
[5] = Cytotoxicity against differentiated mouse 3T3-F442A cells assessed as depletion of mitochondrial DNA level at 10 uM by real-time PCR; assay type: cell-based
[6] = Cytotoxicity against differentiated mouse 3T3-F442A cells assessed as increase in TTP content after 10 days; assay type: cell-based; conditions: 240 h
[7] = Increase in mitochondrial DNA level in differentiated mouse 3T3-F442A cells at 1 uM by real-time PCR; assay type: ADME
[8] = Increase in mitochondrial DNA level in differentiated mouse 3T3-F442A cells at 10 uM by real-time PCR; assay type: ADME

Compound | Activity [1] | Activity [2] | Activity [3] | Activity [4] | Activity [5] | Activity [6] [%] | Activity [7] | Activity [8]
Cc1cn([C@H]2C=C[C@@H](CO)O2)c(=O)[nH]c1=O [STAVUDINE] | Non-toxic | Toxic | Non-toxic | Non-toxic | Toxic |  |  | 
Cc1cn([C@H]2C[C@H](N=[N+]=[N-])[C@@H](CO)O2)c(=O)[nH]c1=O [ZIDOVUDINE] |  |  | Non-toxic | Non-toxic |  | 35 | Non-toxic | Non-toxic

Source: ChEMBL document CHEMBL1687723, “Effects of zidovudine and stavudine on mitochondrial DNA of differentiating 3T3-F442a cells are not associated with imbalanced deoxynucleotide pools” (Antimicrob Agents Chemother, 2009)
